Numbers after ± are expanded uncertainties.
Assay: wn = mass fraction of the nth substance listed
Conditions: 100 kPa, Liquid; for viscosity: Concentric cylinders viscometry; for mass density: Vibrating tube method

CCC(=O)[O-].C[N+](C)(C)CCO [cholinium propanoate] + O
Conditions	mass density [kg/m3]	viscosity [mPa·s]
293.15 K, w2 = 0.003	1070.1 ± 1.3	4600 ± 280
293.15 K, w2 = 0.01	1070.9 ± 1.3	3316.4 ± 190
293.15 K, w2 = 0.021	1072.1 ± 1.3	2130.4 ± 110
293.15 K, w2 = 0.025	1072.3 ± 1.3	1826.4 ± 91
293.15 K, w2 = 0.046	1074 ± 1.3	980.3 ± 42
293.15 K, w2 = 0.064	1075.3 ± 1.3	607 ± 23
293.15 K, w2 = 0.1	1076.9 ± 1.3	286 ± 8.9
293.15 K, w2 = 0.127	1077.5 ± 1.2	193.3 ± 5.4
293.15 K, w2 = 0.208	1077.7 ± 1.2	74.5 ± 1.7
293.15 K, w2 = 0.262	1075.4 ± 1.1	49.6 ± 1.1
298.15 K, w2 = 0.003	1067.4 ± 1.3	2918.6 ± 160
298.15 K, w2 = 0.01	1068.1 ± 1.3	2112.2 ± 110
298.15 K, w2 = 0.021	1069.2 ± 1.3	1416.6 ± 66
298.15 K, w2 = 0.025	1069.5 ± 1.3	1227.2 ± 56
298.15 K, w2 = 0.046	1071.1 ± 1.3	681.1 ± 27
298.15 K, w2 = 0.064	1072.3 ± 1.3	432.9 ± 15
298.15 K, w2 = 0.1	1074 ± 1.3	211.8 ± 6
298.15 K, w2 = 0.127	1074.6 ± 1.2	145.4 ± 3.7
298.15 K, w2 = 0.208	1074.9 ± 1.2	57.9 ± 1.3
298.15 K, w2 = 0.262	1072.3 ± 1.1	39.1 ± 0.9
303.15 K, w2 = 0.003	1064.6 ± 1.3	1909.6 ± 96
303.15 K, w2 = 0.01	1065.3 ± 1.3	1410 ± 66
303.15 K, w2 = 0.021	1066.4 ± 1.3	968.2 ± 42
303.15 K, w2 = 0.025	1066.7 ± 1.3	847.5 ± 35
303.15 K, w2 = 0.046	1068.2 ± 1.3	484.8 ± 17
303.15 K, w2 = 0.064	1069.5 ± 1.3	315.7 ± 10
303.15 K, w2 = 0.1	1071.2 ± 1.3	159.9 ± 4.2
303.15 K, w2 = 0.127	1071.9 ± 1.2	111.4 ± 2.7
303.15 K, w2 = 0.208	1072 ± 1.2	45.8 ± 1
303.15 K, w2 = 0.262	1069.4 ± 1.1	31.4 ± 0.7
308.15 K, w2 = 0.003	1061.9 ± 1.3	1285 ± 59
308.15 K, w2 = 0.01	1062.5 ± 1.3	967 ± 41
308.15 K, w2 = 0.021	1063.6 ± 1.3	678.9 ± 27
308.15 K, w2 = 0.025	1063.8 ± 1.3	599.9 ± 23
308.15 K, w2 = 0.046	1065.4 ± 1.3	353 ± 12
308.15 K, w2 = 0.064	1066.7 ± 1.3	235.1 ± 6.9
308.15 K, w2 = 0.1	1068.4 ± 1.2	123 ± 3.1
308.15 K, w2 = 0.127	1069.1 ± 1.2	86.8 ± 2
308.15 K, w2 = 0.208	1069.2 ± 1.2	36.7 ± 0.8
308.15 K, w2 = 0.262	1066.5 ± 1.1	25.5 ± 0.6
313.15 K, w2 = 0.003	1059.2 ± 1.3	888.1 ± 37
313.15 K, w2 = 0.01	1059.8 ± 1.3	680.2 ± 27
313.15 K, w2 = 0.021	1060.8 ± 1.3	487.3 ± 18
313.15 K, w2 = 0.025	1061 ± 1.3	434.3 ± 15
313.15 K, w2 = 0.046	1062.6 ± 1.3	262.3 ± 7.9
313.15 K, w2 = 0.064	1063.9 ± 1.3	178.4 ± 4.9
313.15 K, w2 = 0.1	1065.7 ± 1.2	96.1 ± 2.3
313.15 K, w2 = 0.127	1066.4 ± 1.2	68.7 ± 1.5
313.15 K, w2 = 0.208	1066.3 ± 1.2	29.8 ± 0.7
313.15 K, w2 = 0.262	1063.6 ± 1.1	20.8 ± 0.5
318.15 K, w2 = 0.003	1056.4 ± 1.3	628.8 ± 24
318.15 K, w2 = 0.01	1057 ± 1.3	489.6 ± 18
318.15 K, w2 = 0.021	1058.1 ± 1.3	357.4 ± 12
318.15 K, w2 = 0.025	1058.3 ± 1.3	321.1 ± 10
318.15 K, w2 = 0.046	1059.9 ± 1.3	198.7 ± 5.6
318.15 K, w2 = 0.064	1061.2 ± 1.3	137.7 ± 3.5
318.15 K, w2 = 0.1	1062.9 ± 1.2	76.2 ± 1.7
318.15 K, w2 = 0.127	1063.6 ± 1.2	55.1 ± 1.2
318.15 K, w2 = 0.208	1063.4 ± 1.2	24.5 ± 0.5
318.15 K, w2 = 0.262	1060.7 ± 1.1	17.5 ± 0.4
323.15 K, w2 = 0.003	1053.6 ± 1.3	455.4 ± 16
323.15 K, w2 = 0.01	1054.3 ± 1.3	360 ± 12
323.15 K, w2 = 0.021	1055.4 ± 1.3	267.4 ± 8.2
323.15 K, w2 = 0.025	1055.7 ± 1.3	241.9 ± 7.2
323.15 K, w2 = 0.046	1057.3 ± 1.3	153.1 ± 4
323.15 K, w2 = 0.064	1058.7 ± 1.3	108 ± 2.6
323.15 K, w2 = 0.1	1060.2 ± 1.2	61.3 ± 1.4
323.15 K, w2 = 0.127	1060.8 ± 1.2	44.8 ± 1
323.15 K, w2 = 0.208	1060.6 ± 1.2	20.4 ± 0.5
323.15 K, w2 = 0.262	1057.8 ± 1.1	14.7 ± 0.3
328.15 K, w2 = 0.003	1050.9 ± 1.3	336.7 ± 11
328.15 K, w2 = 0.01	1051.6 ± 1.3	270 ± 8.3
328.15 K, w2 = 0.021	1052.7 ± 1.3	203.8 ± 5.8
328.15 K, w2 = 0.025	1053 ± 1.3	185.5 ± 5.1
328.15 K, w2 = 0.046	1054.6 ± 1.3	119.9 ± 3
328.15 K, w2 = 0.064	1056 ± 1.3	86 ± 2
328.15 K, w2 = 0.1	1057.5 ± 1.2	50 ± 1.1
328.15 K, w2 = 0.127	1058 ± 1.2	36.9 ± 0.8
328.15 K, w2 = 0.208	1057.8 ± 1.2	17.2 ± 0.4
328.15 K, w2 = 0.262	1054.9 ± 1.1	12.5 ± 0.3
333.15 K, w2 = 0.003	1048.2 ± 1.3	253.8 ± 7.6
333.15 K, w2 = 0.01	1049 ± 1.3	206.2 ± 5.9
333.15 K, w2 = 0.021	1050.1 ± 1.3	158.1 ± 4.2
333.15 K, w2 = 0.025	1050.3 ± 1.3	144.6 ± 3.8
333.15 K, w2 = 0.046	1052.1 ± 1.3	95.3 ± 2.3
333.15 K, w2 = 0.064	1053.3 ± 1.3	69.4 ± 1.6
333.15 K, w2 = 0.1	1054.8 ± 1.2	41.2 ± 0.9
333.15 K, w2 = 0.127	1055.4 ± 1.2	30.7 ± 0.7
333.15 K, w2 = 0.208	1054.9 ± 1.2	14.6 ± 0.3
333.15 K, w2 = 0.262	1051.9 ± 1.1	10.6 ± 0.2
338.15 K, w2 = 0.003	1045.5 ± 1.3	194.8 ± 5.5
338.15 K, w2 = 0.01	1046.3 ± 1.3	160.1 ± 4.3
338.15 K, w2 = 0.021	1047.5 ± 1.3	124.5 ± 3.1
338.15 K, w2 = 0.025	1047.8 ± 1.3	114.4 ± 2.8
338.15 K, w2 = 0.046	1049.4 ± 1.3	76.7 ± 1.8
338.15 K, w2 = 0.064	1050.7 ± 1.3	56.7 ± 1.3
338.15 K, w2 = 0.1	1052.1 ± 1.2	34.3 ± 0.8
338.15 K, w2 = 0.127	1052.6 ± 1.2	25.8 ± 0.6
338.15 K, w2 = 0.208	1052 ± 1.2	12.5 ± 0.3
338.15 K, w2 = 0.262	1048.9 ± 1.1	9.3 ± 0.2
343.15 K, w2 = 0.003	1042.9 ± 1.3	151.9 ± 4
343.15 K, w2 = 0.01	1043.7 ± 1.3	126.2 ± 3.2
343.15 K, w2 = 0.021	1044.8 ± 1.3	99.3 ± 2.4
343.15 K, w2 = 0.025	1045.1 ± 1.3	91.8 ± 2.2
343.15 K, w2 = 0.046	1046.7 ± 1.3	62.5 ± 1.4
343.15 K, w2 = 0.064	1047.9 ± 1.3	46.8 ± 1
343.15 K, w2 = 0.1	1049.3 ± 1.2	28.8 ± 0.6
343.15 K, w2 = 0.127	1049.7 ± 1.2	21.9 ± 0.5
343.15 K, w2 = 0.208	1049.1 ± 1.2	10.8 ± 0.2
343.15 K, w2 = 0.262	1045.8 ± 1.1	8.1 ± 0.2

CCCCCC(=O)[O-].C[N+](C)(C)CCO [2-hydroxy-N,N,N-trimethylethanaminium hexanoate] + O
Conditions	mass density, w2 = 0.058 [kg/m3]	mass density, w2 = 0.091 [kg/m3]	mass density, w2 = 0.161 [kg/m3]	mass density, w2 = 0.198 [kg/m3]	viscosity, w2 = 0.058 [mPa·s]	viscosity, w2 = 0.091 [mPa·s]	viscosity, w2 = 0.161 [mPa·s]	viscosity, w2 = 0.198 [mPa·s]
293.15 K	1018 ± 1	1021 ± 1	1026 ± 1	1026 ± 1	1187.4 ± 53	640.3 ± 25	202.1 ± 5.8	166.8 ± 4.4
298.15 K	1015 ± 1	1018 ± 1	1023 ± 1	1023 ± 1	831.9 ± 34	462.6 ± 16	151.2 ± 3.9	125.3 ± 3.1
303.15 K	1012 ± 1	1015 ± 1	1020 ± 1	1021 ± 1	598.1 ± 23	340.7 ± 11	114.8 ± 2.8	95.6 ± 2.2
308.15 K	1009 ± 1	1012 ± 1	1017 ± 1	1018 ± 1	439 ± 15	255.5 ± 7.6	88.6 ± 2.1	74.1 ± 1.7
313.15 K	1007 ± 1	1009 ± 1	1014 ± 1	1015 ± 1	328.4 ± 11	195.3 ± 5.4	69.7 ± 1.6	58.4 ± 1.3
318.15 K	1004 ± 1	1006 ± 1	1011 ± 1	1012 ± 1	249.1 ± 7.4	150.8 ± 3.9	55.1 ± 1.2	46.4 ± 1
323.15 K	1001 ± 1	1003 ± 1	1008 ± 1	1009 ± 1	192.3 ± 5.3	118.4 ± 2.9	44.3 ± 1	37.5 ± 0.8
328.15 K	998 ± 1	1001 ± 1	1005 ± 1	1006 ± 1	150.4 ± 3.9	94.1 ± 2.2	36.1 ± 0.8	30.6 ± 0.7
333.15 K	996 ± 1	998 ± 1	1003 ± 1	1003 ± 1	119.5 ± 3	76 ± 1.7	29.8 ± 0.7	25.3 ± 0.6
338.15 K	993 ± 1	995 ± 1	1000 ± 1	1000 ± 1	95.6 ± 2.3	61.7 ± 1.4	24.7 ± 0.6	21 ± 0.5
343.15 K	990 ± 1	992 ± 1	997 ± 1	997 ± 1	77.6 ± 1.8	50.7 ± 1.1	20.7 ± 0.5	17.7 ± 0.4

From the NIST ThermoML archive (doi:10.1016/j.jct.2014.12.020)
